Source: US20210275692A1, “SOLUTION COMPRISING FLUORESCENT DYE AS FIDUCIAL MARKER” (DANMARKS TEKNISKE UNIVERSITET, priority 2018, published 2021)

experiment: Spectroscopic characterization of SSIB-Cy7.5 in SAIB or LOIB markers; type: physicochemical; details: 0.01% w/w in LOIB:xSAIB:EtOH:D&Cv2

| Compound | broad emission peak centre [nm] |
| --- | --- |
| 6′-(Cyanine 7.5)-Isobutyric Sucrose [SSIB-Cy7.5] | 845 |

same assay, conditions: SAIB:xSAIB:EtOH 70:10:20

| Compound | dye concentration up to which emission intensity increased (then self-quenching) [% w/w] |
| --- | --- |
| 6′-(Cyanine 7.5)-Isobutyric Sucrose [SSIB-Cy7.5] | 0.003 |

same assay, conditions: UVvis in LOIB:xSAIB:EtOH:D&Cv2; 0.1% w/w D&Cv2, 0.01% w/w SSIB-Cy7.5

| Compound | absorption peak [nm] |
| --- | --- |
| Cc1ccc(Nc2ccc(O)c3c2C(=O)c2ccccc2C3=O)cc1 [D&Cv2] | 590 |

experiment: UVvis maximum absorption wavelength of selected dyes (Table 1); type: physicochemical; details: source not stated

| Compound | UVvis maximum [nm] |
| --- | --- |
| 2,11,20,29-Tetra-tert-butyl-2,3-naphthalocyanine | 712 |
| CCCCOc1ccc(OCCCC)c2c1-c1nc3nc(nc4[nH]c([nH]c5nc(nc-2n1)-c1c(OCCCC)ccc(OCCCC)c1-5)c1c(OCCCC)ccc(OCCCC)c41)-c1c(OCCCC)ccc(OCCCC)c1-3 [1,4,8,11,15,18,22,25-Octabutoxy-29H,31H-phthalocyanine] | 762 |
| CCC1=C(CC)c2cc3[nH]c(cc4nc(cc5[nH]c(cc1n2)c(CC)c5CC)C(CC)=C4CC)c(CC)c3CC [2,3,7,8,12,13,17,18-Octaethyl-21H,23H-porphine] | 401 |
| CCCCCCCCOc1cc2c(cc1OCCCCCCCC)-c1nc-2nc2[nH]c(nc3nc(nc4[nH]c(n1)c1cc(OCCCCCCCC)c(OCCCCCCCC)cc41)-c1cc(OCCCCCCCC)c(OCCCCCCCC)cc1-3)c1cc(OCCCCCCCC)c(OCCCCCCCC)cc21 [2,3,9,10,16,17,23,24-Octakis(octyloxy)-29H,31H-phthalocyanine] | 701 |
| CC(C)(C)c1ccc2c(c1)-c1nc3nc(nc4[nH]c(nc5[nH]c(nc-2n1)c1cc(C(C)(C)C)ccc51)c1cc(C(C)(C)C)ccc41)-c1ccc(C(C)(C)C)cc1-3 [2,9,16,23-Tetra-tert-butyl-29H,31H-phthalocyanine] | 696 |
| CCCCOc1c2c(c(OCCCC)c3ccccc13)-c1nc-2nc2[nH]c(nc3nc(nc4[nH]c(n1)c1c(OCCCC)c5ccccc5c(OCCCC)c41)-c1c-3c(OCCCC)c3ccccc3c1OCCCC)c1c(OCCCC)c3ccccc3c(OCCCC)c21 [5,9,14,18,23,27,32,36-Octabutoxy-2,3-naphthalocyanine] | 784 |
| C1=Cc2nc1c(-c1ccccc1)c1ccc([nH]1)c(-c1ccccc1)c1nc(c(-c3ccccc3)c3ccc([nH]3)c2-c2ccccc2)C=C1 [5,10,15,20-Tetraphenyl-21H,23H-porphine] | 514 |
| C#CCNC(=O)CCCCCN1C(=CC=CC=CC2=[N+](C)c3ccccc3C2(C)C)C(C)(C)c2ccccc21.[Cl-] [Cy5-alkyne] | 646 |
| C#CCNC(=O)CCCCCN1C(=CC=CC=CC2=[N+](C)c3ccc4ccccc4c3C2(C)C)C(C)(C)c2c1ccc1ccccc21.[Cl-] [Cy5.5-alkyne] | 684 |
| C#CCNC(=O)CCCCCN1/C(=C/C=C2C=C(/C=C/C3=[N+](C)c4ccc5ccccc5c4C3(C)C)CCC/2)C(C)(C)c2c1ccc1ccccc21.[Cl-] [Cy7.5-alkyne] | 788 |
| c1ccc2c(c1)-c1nc-2nc2[nH]c(nc3nc(nc4[nH]c(n1)c1ccccc41)-c1ccccc1-3)c1ccccc21 [Phthalocyanine] | 698 |
| Cy7-alkyne | 750 |
